Data from patent US20120214748A1, “NOVEL PEPTIDES, PROCESS FOR PREPARATION THEREOF, AND USE THEREOF” (priority 2009, published 2012).
Where two headings read alike, the source gives them in different places. Bridge positions count the residues as written; N and C are the ends. Peptide text beside a SMILES is read from it.

Key:
[1] = tested on: blood coagulation (thrombin operation); test: Thrombin time (TT) in blood plasma; conditions: peptide 200 μM, FIG. 6.a
Method: (§1) We performed blood coagulation measurements using blood plasma taken from healthy individuals. From the blood obtained through venipuncture and treated with sodium citrate (3.8% wt/vol) the plasma was isolated by centrifugation (2000 g, 15 minutes, Jouan CR412 centrifuge).
(§2) Prothrombin time (PT) testing the extrinsic pathway of blood coagulation was measured on Sysmex® CA-500 (Sysmex, Japan) automatic system using Innovin® Reagent (Dale Behring, Marburg, Germany). Activated partial thromboplastin time (APTT) testing the intrinsic pathway of blood coagulation and thrombin time (TT) directly testing thrombin operation was measured on a Coag-A-Mate® MAX (BioMerieux, France) analyser using TriniClot™ reagent (Trinity Biotech, Wichlow, Ireland) and Reanal™ reagent (Reanal Finechemical, Hungary).
(§3) To examine the effects of peptides on blood coagulation we measured dose dependency, the results are shown on the graphs in FIG. 6. […] On the ordinates time is determined in seconds, while on the abscissas the logarithm of the inhibitor concentration is shown in μM.
(§4) FIG. 6.a illustrates an experiment for measuring thrombin time, in the course of which plasma coagulation (fibrin formation) is initiated by adding thrombin to the plasma. […] The members of this protease cascade are inhibited with peptide used in increasing concentrations (abscissa), and the time needed for coagulation is measured (ordinate).

[2] = tested on: extrinsic pathway of blood coagulation; test: Prothrombin time (PT) in blood plasma; conditions: peptide 200 μM, FIG. 6.b
Method: as §1, §2, §3, §4

[3] = tested on: intrinsic pathway of blood coagulation; test: Activated partial thromboplastin time (APTT) in blood plasma; conditions: peptide 200 μM, FIG. 6.c
Method: as §1, §2, §3, §4

[4] = tested on: lectin pathway of the complement system; test: WIELISA complement assay, lectin pathway; type: biochemical; conditions: serum, FIG. 7
Method: (§5) For measuring we used the so-called WIELISA kit (Euro-Diagnostica AB, COMPL300) developed for the selective measuring of the complement pathways, on the basis of the instructions for use attached to the kit. […] At the same time, the product detected during measuring is not a pathway-selective component, but the last element of the joint section of the activation pathways, the C5-9 complex.
(§6) The serum was diluted according to the prescriptions with the buffer belonging to the given complement pathway, it was incubated for 20 minutes at room temperature, the dilution sequence prepared from peptides was added to it, it was incubated for 20 minutes at room temperature, then it was pipetted into the appropriate wells of a special ELISA plate. In the following, washing, incubation and antibody addition was performed according to the instructions for use. It was incubated for 20 minutes with the substrate, and then the data was read at 450 nm in a spectrophotometer. A parallel belonged to each measuring point, 100% activity was represented by the serum without an inhibitor. The measurements were performed at the same time and on the same plate, from one single melted serum sample.

[5] = tested on: alternative pathway of the complement system; test: WIELISA complement assay, alternative pathway; type: biochemical; conditions: serum, FIG. 7
Method: as §5, §6

Thrombin = Thrombin (Homo sapiens, UniProt P00734); test: Thrombin inhibition with Z-Gly-Pro-Arg-pNa substrate; type: biochemical
[6] = tested on: classical pathway of the complement system; test: WIELISA complement assay, classical pathway; type: biochemical; conditions: serum, FIG. 7
Method: as §5, §6

Trypsin = target: T1, Trypsin (Bos taurus, UniProt P00760); test: Trypsin inhibition on Z-L-Lys-SBzl substrate
T1 sequence (P00760 24-246): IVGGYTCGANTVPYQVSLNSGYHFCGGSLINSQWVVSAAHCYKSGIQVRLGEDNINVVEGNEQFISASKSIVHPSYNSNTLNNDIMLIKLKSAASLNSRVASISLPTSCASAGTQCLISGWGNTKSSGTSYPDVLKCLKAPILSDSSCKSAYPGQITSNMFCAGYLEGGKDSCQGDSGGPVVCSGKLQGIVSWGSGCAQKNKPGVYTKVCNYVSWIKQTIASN

MASP enzymes [7] = test: Preliminary experiments: inhibition of MASP enzymes by SGCI; type: biochemical
MASP enzymes [8] = test: Preliminary experiments: binding of SGCI to MASP enzymes
MASP-2 CCP1-CCP2-SP = target: T2, MASP-2 CCP1-CCP2-SP (Homo sapiens, UniProt O00187); test: Ki determination with synthetic substrate Z-L-Lys-SBzl on MASP-2; type: biochemical; conditions: NG = inhibition could not be measured even at the highest inhibitor concentration used
T2 construct: Human MASP-targets consist of a serine-protease (SP) domain and two complement control protein domains (CCP-1,-2); made in house
T2 sequence (O00187 445-686 limits assumed): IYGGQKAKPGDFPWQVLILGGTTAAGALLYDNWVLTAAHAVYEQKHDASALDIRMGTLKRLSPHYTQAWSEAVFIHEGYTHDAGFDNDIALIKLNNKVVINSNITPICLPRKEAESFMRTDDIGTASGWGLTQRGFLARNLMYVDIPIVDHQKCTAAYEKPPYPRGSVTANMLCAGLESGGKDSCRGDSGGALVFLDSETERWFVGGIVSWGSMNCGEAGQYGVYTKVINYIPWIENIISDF
T2 sequence (O00187 287-444 partner limits assumed): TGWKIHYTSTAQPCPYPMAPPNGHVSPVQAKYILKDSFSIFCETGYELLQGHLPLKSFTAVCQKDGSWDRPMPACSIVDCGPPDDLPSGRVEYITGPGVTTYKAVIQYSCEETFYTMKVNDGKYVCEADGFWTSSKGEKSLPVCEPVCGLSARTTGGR

MASP-1 CCP1-CCP2-SP = target: T3, MASP-1 CCP1-CCP2-SP (Homo sapiens, UniProt P48740); test: Ki determination with synthetic substrate Z-L-Lys-SBzl on MASP-1; type: biochemical
T3 construct: Human MASP-targets consist of a serine-protease (SP) domain and two complement control protein domains (CCP-1,-2); made in house
T3 sequence (P48740 449-699 limits assumed): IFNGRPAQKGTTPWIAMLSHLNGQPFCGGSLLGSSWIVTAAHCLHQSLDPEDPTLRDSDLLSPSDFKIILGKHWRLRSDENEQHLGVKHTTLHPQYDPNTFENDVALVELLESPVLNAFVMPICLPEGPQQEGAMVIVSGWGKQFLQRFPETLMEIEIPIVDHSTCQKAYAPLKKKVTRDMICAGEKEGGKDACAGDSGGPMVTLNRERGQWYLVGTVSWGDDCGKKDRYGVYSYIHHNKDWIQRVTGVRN
T3 sequence (P48740 298-448 partner limits assumed): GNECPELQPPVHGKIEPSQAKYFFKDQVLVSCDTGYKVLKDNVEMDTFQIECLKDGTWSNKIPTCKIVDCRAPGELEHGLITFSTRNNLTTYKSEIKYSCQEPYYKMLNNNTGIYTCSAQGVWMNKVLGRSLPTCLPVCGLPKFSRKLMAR

## CC[C@H](C)[C@H](NC(=O)CN)C(=O)N[C@H]1CSSC[C@@H](C(=O)N[C@H](C(=O)N2CCC[C@H]2C(=O)N[C@@H](CC(=O)O)C(=O)O)[C@@H](C)CC)NC(=O)[C@H]([C@@H](C)CC)NC(=O)[C@@H]2CCCN2C(=O)[C@@H]2CCCN2C(=O)[C@H](CC(C)C)NC(=O)[C@H](CO)NC(=O)[C@H](CCCNC(=N)N)NC(=O)[C@H](CO)NC1=O [M2-4G] (H-GICSRSLPPICIPD-OH; disulfide 3-11; N-terminus and C-terminus assumed)
[1]
  thrombin time, effect on coagulation: reached the extreme measuring value
[2]
  prothrombin time, effect on coagulation: reached the extreme measuring value
[3]
  activated thromboplastin time, effect on coagulation: reached the extreme measuring value
[4]
  inhibition of the lectin pathway (C5-9 complex): efficient and specific inhibitors of the lectin pathway
[5]
  inhibition of the alternative pathway (C5-9 complex): neither “S” peptide nor the “NS” peptide inhibited
Thrombin
  thrombin inhibition: poor thrombin inhibitor
Thrombin; read-out: Ki value on thrombin
  Ki: 10 µM
[6]
  inhibition of the classical pathway (C5-9 complex): neither “S” peptide nor the “NS” peptide inhibited
Trypsin
  Ki: 0.26 µM
  trypsin inhibition compared to wild-type SFTI-1: much weaker on trypsin than wild-type SFTI-1

## CC[C@H](C)[C@H](NC(=O)[C@@H]1CSSC[C@H](NC(=O)[C@H](CCSC)NC(=O)CN)C(=O)N[C@@H](CO)C(=O)N[C@@H](CCCNC(=N)N)C(=O)N[C@@H](CO)C(=O)N[C@@H](Cc2ccc(O)cc2)C(=O)N2CCC[C@H]2C(=O)N2CCC[C@H]2C(=O)N[C@@H](C(C)C)C(=O)N1)C(=O)N1CCC[C@H]1C(=O)N[C@@H](CC(=O)O)C(=O)O [M2-6E-Y2M] (H-GMCSRSYPPVCIPD-OH; disulfide 3-11; N-terminus and C-terminus assumed)
Trypsin
  Ki: 4 µM

## CC[C@H](C)[C@H](NC(=O)[C@@H]1CSSC[C@H](NC(=O)[C@H](Cc2c[nH]c3ccccc23)NC(=O)CN)C(=O)N[C@@H](CO)C(=O)N[C@@H](CCCNC(=N)N)C(=O)N[C@@H](CO)C(=O)N[C@@H](Cc2ccc(O)cc2)C(=O)N2CCC[C@H]2C(=O)N2CCC[C@H]2C(=O)N[C@@H](C(C)C)C(=O)N1)C(=O)N1CCC[C@H]1C(=O)N[C@@H](CC(=O)O)C(=O)O [M2-6E-Y2W] (H-GWCSRSYPPVCIPD-OH; disulfide 3-11; N-terminus and C-terminus assumed)
Trypsin
  Ki: 1.7 µM

## CC[C@H](C)[C@H](NC(=O)[C@@H]1CSSC[C@H](NC(=O)[C@H](Cc2ccc(O)cc2)NC(=O)CN)C(=O)N[C@@H](CO)C(=O)N[C@@H](CCCNC(=N)N)C(=O)N[C@@H](CO)C(=O)N[C@@H]([C@@H](C)CC)C(=O)N2CCC[C@H]2C(=O)N2CCC[C@H]2C(=O)N[C@@H](C(C)C)C(=O)N1)C(=O)N1CCC[C@H]1C(=O)N[C@@H](CC(=O)O)C(=O)O [M2-6E-Y7I] (H-GYCSRSIPPVCIPD-OH; disulfide 3-11; N-terminus and C-terminus assumed)
Trypsin
  Ki: 0.16 µM

## SGCI: Schistocerca Gregaria Chymotrypsin Inhibitor, chymotrypsin inhibitor molecule fused to the SFTI library for monovalent phage display (EVTCEPGTTFKDKCNTCRCGSDGKSAACTLKACPQ)
MASP enzymes [7]
  inhibition of MASP enzymes: does not inhibit MASP enzymes
MASP enzymes [8]
  binding to MASP enzymes: does not even bind to these enzymes

## CC[C@H](C)[C@H](NC(=O)[C@@H]1CSSC[C@H](NC(=O)[C@H](Cc2ccc(O)cc2)NC(=O)CN)C(=O)N[C@@H](CO)C(=O)N[C@@H](CCCNC(=N)N)C(=O)N[C@@H](CO)C(=O)N[C@@H](Cc2ccc(O)cc2)C(=O)N2CCC[C@H]2C(=O)N2CCC[C@H]2C(=O)N[C@@H](C(C)C)C(=O)N1)C(=O)N1CCC[C@H]1C(=O)N[C@@H](CC(=O)O)C(=O)O [M2-6E] (H-GYCSRSYPPVCIPD-OH; disulfide 3-11; N-terminus and C-terminus assumed)
[1]
  thrombin time, effect on coagulation: remained near the normal range
[2]
  prothrombin time, effect on coagulation: remained near the normal range
[3]
  activated thromboplastin time, effect on coagulation: remained near the normal range
MASP-2 CCP1-CCP2-SP
  Ki: 0.18 µM
[4]
  inhibition of the lectin pathway (C5-9 complex): efficient and specific inhibitors of the lectin pathway
[5]
  inhibition of the alternative pathway (C5-9 complex): neither “S” peptide nor the “NS” peptide inhibited
Thrombin
  thrombin inhibition: very poor thrombin inhibitor
Thrombin; read-out: KI Thrombin
  Ki: 550 µM
MASP-1 CCP1-CCP2-SP
  activity on MASP-1: not active on MASP-1
[6]
  inhibition of the classical pathway (C5-9 complex): neither “S” peptide nor the “NS” peptide inhibited
Trypsin
  Ki: 1 µM
Trypsin; compared with wild-type SFTI
  activity on trypsin, lower by: 4 orders of magnitude

## CC[C@H](C)[C@@H]1NC(=O)CNC(=O)[C@H](CC(=O)O)NC(=O)[C@@H]2CCCN2C(=O)[C@H]([C@@H](C)CC)NC(=O)[C@@H]2CSSC[C@H](NC1=O)C(=O)N[C@@H](CO)C(=O)N[C@@H](CCCNC(=N)N)C(=O)N[C@@H](CO)C(=O)N[C@@H](CC(C)C)C(=O)N1CCC[C@H]1C(=O)N1CCC[C@H]1C(=O)N[C@@H]([C@@H](C)CC)C(=O)N2 [M2-4G cyclic] (cyclo(CIPDGICSRSLPPI); disulfide 1-7)
Trypsin
  Ki: 0.35 µM

## CC[C@H](C)[C@@H]1NC(=O)[C@@H]2CCCN2C(=O)[C@@H]2CCCN2C(=O)[C@H]([C@@H](C)CC)NC(=O)[C@H](CO)NC(=O)[C@H](CCCCN)NC(=O)[C@H]([C@@H](C)O)NC(=O)[C@@H](NC(=O)[C@H](CCCNC(=N)N)NC(=O)CN)CSSC[C@@H](C(=O)N[C@@H](Cc2ccccc2)C(=O)N2CCC[C@H]2C(=O)N[C@@H](CC(=O)O)C(=O)O)NC1=O [wild-type SFTI, reference compound]
Thrombin
  Ki: 140 µM

## CC[C@H](C)[C@@H]1NC(=O)[C@@H]2CCCN2C(=O)[C@@H]2CCCN2C(=O)[C@H](CC(C)C)NC(=O)[C@H](CO)NC(=O)[C@H](CCCNC(=N)N)NC(=O)[C@H](CO)NC(=O)[C@@H](NC(=O)[C@@H](NC(=O)CN)C(C)C)CSSC[C@@H](C(=O)N[C@@H](Cc2c[nH]c3ccccc23)C(=O)N2CCC[C@H]2C(=O)N[C@@H](CC(=O)O)C(=O)O)NC1=O [M1-3E-Y12W] (H-GVCSRSLPPICWPD-OH; disulfide 3-11; N-terminus and C-terminus assumed)
Trypsin
  Ki: 0.17 µM
